Measurements from paper PMC3133734 (Journal of medicinal chemistry, 2011).
Marks after values point to notes of the source that are not given here.

Experiments:
[1] = tested on: HIV-1 virus strain RF in CEM-SS cells; experiment: HIV-1 cytopathicity assay; type: cell-based; settings: HIV-1RF
[2] = target: RNase H-deficient p66^EQ/p51 HIV-1 RT (Human immunodeficiency virus type 1 group M subtype B, UniProt P04585, E1065Q); experiment: DNA-dependent DNA polymerase assay, RNase H mutant p66^E478Q/p51; type: biochemical; settings: inhibitor 20 µM
[3] = target: RNase H-deficient p66^DA/p51 HIV-1 RT (Human immunodeficiency virus type 1 group M subtype B, UniProt P04585, D1136A); experiment: DNA-dependent DNA polymerase assay, RNase H mutant p66^D549A/p51; type: biochemical; settings: inhibitor 20 µM

Row | Compound | protection against the cytopathic effect of HIV (in words) [1] | also measured
1 | Cc1cc(O)c(=O)c(O)c2c1C[C@@H](C(C)O)CC2 (mixture of isomers) [Compound 13, 5,7-Dihydroxy-2-(1-hydroxy-ethyl)-9-methyl-1,2,3,4-tetrahydrobenzocyclohepten-6-one] | protection against the cytopathicity of the virus | –
2 | Cc1cc(O)c(=O)c(O)c2c1C[C@@H](C(C)(O)CNc1ccccc1)CC2 (mixture of isomers) [Compound 5, 5,7-Dihydroxy-2-(1-hydroxy-1-methyl-2-phenylamino-ethyl)-9-methyl-1,2,3,4-tetrahydrobenzocyclohepten-6-one] | protection against the cytopathicity of the virus | inhibition of DNA-dependent DNA polymerase activity (in words) [2]: significantly and consistently inhibited; inhibition of DNA-dependent DNA polymerase activity (in words) [3]: significantly and consistently inhibited
3 | Cc1cc(O)c(=O)c(O)c2c1C[C@@H](C(C)(O)Cn1ccnc1)CC2 (mixture of isomers) [Compound 2, 5,7-Dihydroxy-2-(1-hydroxy-2-imadazol-1-yl-1-methyl-ethyl)-9-methyl-1,2,3,4-tetrahydro benzocyclohepten-6-one] | protection against the cytopathicity of the virus | –
4 | Cc1cc(O)c(=O)c(O)c2c1CC(C(C)(O)CO)CC2 (stereo not drawn) [Compound 12, 2-(1,2-Dihydroxy-1-methyl-ethyl)-5,7-dihydroxy-9-methyl-1,2,3,4-tetrahydrobenzocyclohepten-6-one] | no protection against virus cytopathicity | –
5 | Cc1cc(O)c(=O)c(O)c2c1C[C@@H](C(C)(O)CSCc1ccccc1)CC2 (mixture of isomers) [Compound 8, 2-(2-Benzylsulfanyl-1-hydroxy-1-methyl-ethyl)-5,7-dihydroxy-9-methyl-1,2,3,4-tetrahydrobenzocyclohepten-6-one] | protection against the cytopathicity of the virus | –
6 | Cc1cc(O)c(=O)c(O)c2c1C[C@@H](C(C)NCc1ccccc1)CC2 (mixture of isomers) [Compound 14, 2-(1-Benzylamino-ethyl)-5,7-Dihydroxy-9-methyl-1,2,3,4-tetrahydrobenzocyclohepten-6-one] | protection against the cytopathicity of the virus | –
7 | 2,7-dihydroxy-4-isopropyl-cyclohepta-2,4,6-triene [β-Thujaplicinol, reference compound] | no protection against the cytopathic effect of HIV | –
8 | CCN(CC)CC(C)(O)[C@H]1CCc2c(c(C)cc(O)c(=O)c2O)C1 (mixture of isomers) [Compound 3, 2-(2-Diethylamino-1-hydroxy-1-methyl-ethyl)-5,7-dihydroxy-9-methyl-1,2,3,4-tetrahydrobenzocyclohepten-6-one] | slight protection against cytopathicity | Viral Replication EC50 column, protective effect class ([1]; highest concentration 50 µM): < 50% ^c
9 | Cc1cc(O)c(=O)c(O)c2c1C[C@@H](C(C)(O)CSc1ccccc1)CC2 (mixture of isomers) [Compound 7, 5,7-Dihydroxy-2-(1-hydroxy-1-methyl-2-phenylsulfanyl-ethyl)-9-methyl-1,2,3,4-tetrahydrobenzocyclohepten-6-one] | protection against the cytopathicity of the virus | –
10 | CCS(=O)(=O)CC(C)(O)[C@H]1CCc2c(c(C)cc(O)c(=O)c2O)C1 (mixture of isomers) [Compound 9, 2-(2-Ethanesulfonyl-1-hydroxy-1-methyl-ethyl)-5,7-dihydroxy-9-methyl-1,2,3,4-tetrahydrobenzocyclohepten-6-one] | slight protection against cytopathicity | –
11 | C=C(C)[C@H]1CCc2c(c(C)cc(O)c(=O)c2O)C1 [Manicol, 5,7-dihydroxy-2-isopropenyl-9-methyl-1,2,3,4-tetrahydro-benzocyclohepten-6-one, reference compound] | no protection against the cytopathic effect of HIV | –
12 | Cc1cc(O)c(=O)c(O)c2c1C[C@@H](C(C)(O)CN1CCCCC1)CC2 (mixture of isomers) [Compound 1, 5,7-Dihydroxy-2-(1-hydroxy-1-methyl-2-piperidin-1-yl-ethyl)-9-methyl-1,2,3,4-tetrahydro benzocyclohepten-6-one] | protection against the cytopathicity of the virus | In vitro therapeutic index (CC50/EC50) [1]: 4.9
13 | CCSCC(C)(O)[C@H]1CCc2c(c(C)cc(O)c(=O)c2O)C1 (mixture of isomers) [Compound 6, 2-(2-Ethylsulfanyl-1-hydroxy-1-methyl-ethyl)-5,7-dihydroxy-9-methyl-1,2,3,4-tetrahydrobenzocyclohepten-6-one] | slight protection against cytopathicity | –
14 | Cc1cc(O)c(=O)c(O)c2c1C[C@@H](C(C)(O)CNCc1ccccc1F)CC2 (mixture of isomers) [Compound 4, 2-[2-(2-Fluoro-benzylamino)-1-hydroxy-1-methyl-ethyl]-5,7-dihydroxy-9-methyl-1,2,3,4-tetrahydrobenzocyclohepten-6-one] | no protection against virus cytopathicity | –
